The record followed here is PMC4599575 (Journal of thrombosis and haemostasis : JTH, 2015).

In general, Kd refers to the equilibrium constant for the complex coming apart. A low value points to tighter binding.

What all share (assay): surface plasmon resonance, protein immobilised on CM5 chip, […] Langmuir fit
What all share (assay type): binding
On the technique in general: Surface plasmon resonance follows binding to a sensor surface in real time, without labels.

For assay [1], the target named is VWF (plasma-derived multimeric VWF) (Homo sapiens, UniProt P04275).
Sequence of VWF (plasma-derived multimeric VWF) (P04275 764-2813): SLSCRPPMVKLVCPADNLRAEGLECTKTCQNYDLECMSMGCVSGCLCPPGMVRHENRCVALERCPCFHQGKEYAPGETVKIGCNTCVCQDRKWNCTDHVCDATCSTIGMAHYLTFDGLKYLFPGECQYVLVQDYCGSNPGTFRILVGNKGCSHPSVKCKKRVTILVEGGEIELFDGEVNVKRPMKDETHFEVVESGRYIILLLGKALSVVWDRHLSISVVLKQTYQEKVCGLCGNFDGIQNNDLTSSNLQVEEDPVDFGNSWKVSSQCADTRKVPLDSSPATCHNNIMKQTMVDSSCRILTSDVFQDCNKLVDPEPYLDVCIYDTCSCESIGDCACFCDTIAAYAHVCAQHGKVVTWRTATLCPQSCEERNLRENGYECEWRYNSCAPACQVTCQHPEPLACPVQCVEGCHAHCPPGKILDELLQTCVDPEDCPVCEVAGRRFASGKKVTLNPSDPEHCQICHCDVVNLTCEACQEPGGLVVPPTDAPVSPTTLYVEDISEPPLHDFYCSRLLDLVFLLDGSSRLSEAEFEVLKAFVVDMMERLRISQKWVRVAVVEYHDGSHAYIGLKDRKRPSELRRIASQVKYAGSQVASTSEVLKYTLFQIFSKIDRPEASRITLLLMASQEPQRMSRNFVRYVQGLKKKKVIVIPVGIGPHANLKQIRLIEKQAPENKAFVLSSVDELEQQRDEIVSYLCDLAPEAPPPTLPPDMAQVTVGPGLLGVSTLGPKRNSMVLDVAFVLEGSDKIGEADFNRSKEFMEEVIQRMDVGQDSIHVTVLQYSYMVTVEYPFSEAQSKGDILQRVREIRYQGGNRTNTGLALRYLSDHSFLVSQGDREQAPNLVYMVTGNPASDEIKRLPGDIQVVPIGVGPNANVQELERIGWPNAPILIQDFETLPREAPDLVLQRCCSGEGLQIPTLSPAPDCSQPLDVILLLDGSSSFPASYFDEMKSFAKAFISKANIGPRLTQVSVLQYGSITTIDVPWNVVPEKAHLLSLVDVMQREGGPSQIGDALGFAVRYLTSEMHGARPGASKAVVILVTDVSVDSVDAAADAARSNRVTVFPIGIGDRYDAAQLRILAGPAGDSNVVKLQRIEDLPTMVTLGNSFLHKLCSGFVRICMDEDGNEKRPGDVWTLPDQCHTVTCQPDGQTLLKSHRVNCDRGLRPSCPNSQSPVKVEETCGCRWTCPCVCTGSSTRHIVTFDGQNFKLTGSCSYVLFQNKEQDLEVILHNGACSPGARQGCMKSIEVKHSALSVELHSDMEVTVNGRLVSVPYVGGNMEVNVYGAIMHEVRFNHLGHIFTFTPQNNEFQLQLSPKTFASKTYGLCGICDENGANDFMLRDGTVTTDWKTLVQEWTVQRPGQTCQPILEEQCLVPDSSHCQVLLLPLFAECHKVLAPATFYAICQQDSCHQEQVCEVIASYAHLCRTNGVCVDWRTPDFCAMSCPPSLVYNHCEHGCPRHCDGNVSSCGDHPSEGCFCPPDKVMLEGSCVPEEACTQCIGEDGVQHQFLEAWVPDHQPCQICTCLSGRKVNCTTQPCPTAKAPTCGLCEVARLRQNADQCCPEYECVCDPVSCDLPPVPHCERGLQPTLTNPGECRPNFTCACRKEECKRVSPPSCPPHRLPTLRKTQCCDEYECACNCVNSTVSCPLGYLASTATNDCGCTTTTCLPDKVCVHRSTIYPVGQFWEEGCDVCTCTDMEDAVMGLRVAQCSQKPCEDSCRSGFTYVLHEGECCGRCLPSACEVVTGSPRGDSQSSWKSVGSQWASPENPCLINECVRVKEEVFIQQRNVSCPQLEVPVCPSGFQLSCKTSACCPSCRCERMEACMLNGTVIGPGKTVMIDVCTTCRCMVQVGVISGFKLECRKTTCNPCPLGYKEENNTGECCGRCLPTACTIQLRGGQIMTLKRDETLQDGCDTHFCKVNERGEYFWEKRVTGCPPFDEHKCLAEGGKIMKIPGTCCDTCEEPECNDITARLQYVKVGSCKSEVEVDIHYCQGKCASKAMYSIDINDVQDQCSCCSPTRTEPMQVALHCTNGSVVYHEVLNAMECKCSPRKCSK
In assay [2] the target is T1, rADAMTS13 (rA13) (Homo sapiens, UniProt Q76LX8).
T1 sequence (Q76LX8 75-1427): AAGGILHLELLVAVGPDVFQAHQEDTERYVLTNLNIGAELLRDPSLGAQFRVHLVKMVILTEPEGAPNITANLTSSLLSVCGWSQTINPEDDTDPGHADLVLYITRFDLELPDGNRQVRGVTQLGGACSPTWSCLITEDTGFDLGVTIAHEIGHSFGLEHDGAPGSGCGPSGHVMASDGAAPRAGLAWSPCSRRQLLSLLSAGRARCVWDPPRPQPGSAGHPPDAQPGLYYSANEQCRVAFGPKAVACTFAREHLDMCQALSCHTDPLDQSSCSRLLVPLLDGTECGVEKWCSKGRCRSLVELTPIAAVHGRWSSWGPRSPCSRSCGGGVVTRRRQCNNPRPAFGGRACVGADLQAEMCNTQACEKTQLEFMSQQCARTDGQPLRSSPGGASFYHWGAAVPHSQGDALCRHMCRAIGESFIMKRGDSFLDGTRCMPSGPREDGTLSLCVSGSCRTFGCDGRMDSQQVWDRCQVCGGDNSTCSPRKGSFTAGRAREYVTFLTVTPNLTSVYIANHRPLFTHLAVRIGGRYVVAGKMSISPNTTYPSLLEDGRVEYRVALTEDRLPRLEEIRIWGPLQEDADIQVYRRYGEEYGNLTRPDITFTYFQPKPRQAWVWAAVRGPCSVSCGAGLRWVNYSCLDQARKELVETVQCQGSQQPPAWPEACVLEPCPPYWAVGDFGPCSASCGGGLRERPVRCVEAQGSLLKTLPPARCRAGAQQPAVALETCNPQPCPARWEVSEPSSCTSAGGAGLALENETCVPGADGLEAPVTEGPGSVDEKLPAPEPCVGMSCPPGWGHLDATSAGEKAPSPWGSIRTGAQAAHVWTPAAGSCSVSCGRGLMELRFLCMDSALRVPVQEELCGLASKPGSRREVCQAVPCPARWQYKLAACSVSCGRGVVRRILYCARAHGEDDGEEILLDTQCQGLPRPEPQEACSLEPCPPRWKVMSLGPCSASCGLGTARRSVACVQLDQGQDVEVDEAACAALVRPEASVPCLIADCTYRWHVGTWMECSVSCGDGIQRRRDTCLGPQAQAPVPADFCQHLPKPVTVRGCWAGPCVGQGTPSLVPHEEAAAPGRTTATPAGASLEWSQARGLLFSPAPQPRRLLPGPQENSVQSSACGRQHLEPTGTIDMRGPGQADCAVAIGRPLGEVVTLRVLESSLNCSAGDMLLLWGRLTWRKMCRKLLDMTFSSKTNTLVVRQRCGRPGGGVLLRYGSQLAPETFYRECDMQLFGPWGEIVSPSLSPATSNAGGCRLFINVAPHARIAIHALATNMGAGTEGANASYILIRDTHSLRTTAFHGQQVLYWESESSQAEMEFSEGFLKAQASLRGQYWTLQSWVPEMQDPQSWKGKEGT

For assay [3], the target named is GST-rVWF73-H (GST-VWF73-H) (Homo sapiens, UniProt P04275).
Sequence of GST-rVWF73-H (GST-VWF73-H) (P04275 1596-1668 limits assumed): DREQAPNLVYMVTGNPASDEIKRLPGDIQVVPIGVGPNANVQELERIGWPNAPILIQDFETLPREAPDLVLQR

As for `C=CC1=C(C)/C(=C/c2[nH]c(Cc3[nH]c(/C=C4\NC(=O)C(C)=C4C=C)c(C)c3CCC(=O)O)c(CCC(=O)O)c2C)NC1=O` [unconjugated bilirubin], the values for the Kd in assay [1], in assay [2] and in assay [3] were 29.6 ± 40.1 µM, 17.5 ± 4 µM and 57.5 ± 80.7 µM, respectively.
